Like-named read-outs stand apart in the source and are kept apart here.
Tests used:
human α7 nAChR = target: T1, human α7 nAChR (Homo sapiens, UniProt P36544); test: Calcium fluorescence assay on α7 nAChR expressed in Neuro2a cells, in the presence of PNU120596; assay type: cell-based; details: for α7 nAChR agonistic activity: at concentrations up to 1 mM, PNU 120,596 present
T1 construct: expressed in transfected cells; host or cells: mouse neuroblastoma Neuro2a, transient co-transfection with Ric-3 (Ric3-pCMV6-XL5, OriGene) and the calcium sensor Case12
Protocol: A panel of the synthesized compounds was tested to determine their activity on α7 nAChR by fluorescence detection of cytoplasmic calcium rise (Figure 2a).
Mouse neuroblastoma Neuro2a cells were purchased from the Russian collection of cell cultures (Institute of Cytology, Russian Academy of Sciences, Saint Petersburg, Russia). Cells were cultured in Dulbecco’s modified Eagle’s essential medium (Paneco, Moscow, Russia) supplemented with 10% fetal bovine serum (Sigma, St. Louis, MO, USA). The cells one day before transfection were subcultured and plated at a density of 10,000 cells per well on a 96-well plate. The next day, Neuro2a cells were transiently transfected with plasmids coding α7 nAChR (human α7 nAChR-pCEP4) or its mutants, the chaperone Ric-3 (Ric3-pCMV6-XL5, OriGene, USA) and a fluorescent calcium sensor Case12 (pCase12-cyto vector, Evrogen, Russia) in molar ratio 4:1:1. Lipofectamine transfection protocol (Invitrogen, Waltham, MA, USA) was performed as recommended by the manufacturer. Transfected cells were grown at 37 °C in a CO2 incubator for 48 h.
Calcium […] assay was performed as described previously. Briefly, Transfected Neuro2a cells were grown on black 96-well plates (Corning, Somerville, MA, USA) at 37 °C in a CO2 incubator for 72 h, then growth medium was substituted with buffer containing 140 mM NaCl, 2 mM CaCl2, 2.8 mM KCl, 4 mM MgCl2, 20 mM HEPES, 10 mM glucose; pH 7.4.
Cells were incubated with the α7 nAChR positive allosteric modulator PNU120596 (10 μM, Tocris, Bristol, UK) for 20 min at room temperature before the addition of tested compounds. Plates were measured in microplate reader Hidex Sence (Hidex, Turku, Finland) using excitation at 485 nm and emission at 535 ± 10 nm. Fluorescence peak intensity in each well was expressed as a percentage of the maximal obtained response. Data files were analysed using Hidex Sence software (Hidex, Turku, Finland). Controls were run in the presence of 4 μM α-cobratoxin.
The R statistical programming environment “https://www.r-project.org/” (accessed on 16 June 2023) was used to analyze the results. Base R graphics and ggplot2 [54] graphical library were used for the data visualisation. Dose-response curves were fitted using “nlm” function and the following equation: response ~ (100/1 + (EC50/x)^n), where x denotes base 10 logarithm of ligand concentration in moles per liter (normalized to 1M) and n is the Hill coefficient. Libraries “rgl” “https://CRAN.R-project.org/package=rgl” (accessed on 16 May 2023) and “barplot3d” “https://cran.r-project.org/src/contrib/Archive/barplot3d/” (accessed on 16 May 2023) were used to generate the 3D bar chart shown on Figure 2b.
Figure 2 In vitro activity determination of the synthesized compounds. […] The receptor activation was detected as an increase in fluorescent signal in cell cytoplasm by fluorescence microscopy or as total fluorescence of the well in 96-well plate reader setup. Normalized fluorescence amplitude was plotted against base 10 logarithm of mole per liter concentration of the tested agonist and EC50 values were than calculated using dose-response equation. […] Substitutions in the 6th position of the indole ring (designated as X) were halogens (green shadow), hydrogen bond acceptors (yellow shadow) or hydrogen bond donors (blue shadow). Carboxy group modifications were comprised by free acid (Q = OH), ethers (Q = OCH3, OC2H5), and amides (Q = NH2, NHCH3).

STAT3 phosphorylation = STAT3 phosphorylation in LPS-stimulated macrophages (flow cytometry); assay type: cell-based, human; details: compound 1 h, then LPS 3 h; control MFI 49
Protocol: To gain an insight into the signaling induced by the tested compounds, ERK1/2 and STAT3 phosphorylation was checked. Macrophages were treated with tested compounds for 1 h, after which they were stimulated with LPS for 3 h.
(§1) Peripheral blood mononuclear cells (PBMCs) were separated by Ficoll-Paque PLUS density gradient centrifugation. PBMCs were placed in a sterile Petri dish and incubated at 37 °C for 2 h. Unattached cells were then removed by washing with PBS and substituted with fresh complete RPMI 1640 medium. To generate monocyte-derived macrophages (MDMs), 50 ng/mL GM-CSF was added to the isolated monocytes and cultured for 6 days to differentiate them into non-polarized MDMs.
Figure 5 Effects of the analyzed compounds on signaling pathways in LPS-stimulated macrophages. Cells were treated with PNU 282987, hypaphorine, or 6-iodohypaphorine methyl ester (6ID) for 1 h and then stimulated with LPS for 3 h. Phosphorylated ERK1/2 and STAT3 were quantified by flow cytometry with specific antibodies. […] (c): Representative histogram showing the increase in ERK 1/2 phosphorylation in comparison to control. The numbers in the histograms show the MFI ± SD (n = 3). MFI—geometrical mean fluorescence intensity. One-way ANOVA tests with Tukey post hoc test: * p ˂ 0.05, ** p ˂ 0.01, *** p < 0.001 in comparison with untreated cells. TEXT PRINTED IN THE PICTURE: (c) Control: PE-ERK 1/2 Phospho: 193.7±1.5 | (c) PNU 282987: PE-ERK 1/2 Phospho: 251.3±13.7 | (c) Hy: PE-ERK 1/2 Phospho: 246.0±15.7 | (c) 6ID: PE-ERK 1/2 Phospho: 273.7±8.1 DOUBTS OF THE COPYIST ABOUT THIS PICTURE: Panel c: no measure or unit is printed beside the numbers; the x-axis label "PE-ERK 1/2 Phospho" is used as the measure / "Control" is the untreated reference rather than a substance; it is included because a value is printed with it

[1] = tested on: TLR4 expression on macrophages; test: Flow cytometry of TLR4 receptor on macrophages; assay type: cell-based, human; details: 48 h incubation
Protocol: The effect of the above-listed compounds on the expression of the TLR4 receptor and the CD86 protein was studied by flow cytometry after 48 h incubation with macrophages. The interaction of bacterial endotoxins with the TLR4 receptor is known to activate the expression of several pro-inflammatory cytokine genes, while the co-stimulatory molecule CD86 plays an important role in […] inflammatory responses. A decrease in the expression of the TLR4 receptor was observed under the action of all tested compounds (Figure 4c,e), the rank order of these TLR4-suppressing effects was as follows: hypaphorine (14%) < PNU 282,987 (21%) < 6ID (31%).
as §1
Figure 4 The effects of PNU 282987, hypaphorine, and D-6-iodohypaphorine methyl ester (6ID) on macrophage membrane proteins expression. Cells were treated with these compounds for 48 h and then analyzed by flow cytometry. PNU 282,987 led to an increase in the (a) CD11b and (b) CD11c expression. (c): All tested compounds led to a decrease in TLR4 expression. (d): Macrophages stimulation with hypaphorine and 6ID promoted an increase in CD86 expression. Results obtained in three independent experiments on macrophages from different donors and presented as mean ± SD. One-way ANOVA tests with Tukey post hoc test: * p ˂0.05, ** p ˂ 0.01, **** p < 0.0001 in comparison with untreated cells.

T1 sequence (P36544 23-502): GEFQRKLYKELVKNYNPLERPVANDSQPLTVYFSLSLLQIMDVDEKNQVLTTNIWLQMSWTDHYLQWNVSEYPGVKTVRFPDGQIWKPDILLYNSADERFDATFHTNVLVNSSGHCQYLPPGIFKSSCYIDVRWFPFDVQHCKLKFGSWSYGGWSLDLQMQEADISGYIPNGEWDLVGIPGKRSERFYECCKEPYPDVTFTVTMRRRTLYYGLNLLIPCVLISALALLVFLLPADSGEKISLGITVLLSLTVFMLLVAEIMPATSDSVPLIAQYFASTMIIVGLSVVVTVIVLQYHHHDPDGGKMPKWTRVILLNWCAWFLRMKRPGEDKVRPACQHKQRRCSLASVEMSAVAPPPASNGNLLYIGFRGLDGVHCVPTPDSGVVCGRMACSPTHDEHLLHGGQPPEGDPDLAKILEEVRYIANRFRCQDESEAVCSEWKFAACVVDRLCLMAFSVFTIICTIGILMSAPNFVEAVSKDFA

Structure (SMILES)	EC50 (human α7 nAChR; human α7 nAChR in Neuro2a cells, PNU120596 10 μM present, read-out: EC50) [µM]	α7 nAChR agonistic activity (human α7 nAChR; listed as Hypaphorine)	α7 nAChR agonistic activity (human α7 nAChR; listed as L-hypaphorine)	EC50 (human α7 nAChR; human α7 nAChR in Neuro2a cells, PNU120596 10 μM present)	STAT3 phosphorylation, MFI (STAT3 phosphorylation)	decrease in the expression of the TLR4 receptor [1] [%]	EC50 (human α7 nAChR) [µM]
COC(=O)C(Cc1c[nH]c2cc([N+](=O)[O-])ccc12)[N+](C)(C)C (stereo not drawn) [Compound 5, methyl ester of 6-nitrohypaphorine]	14						
C[N+](C)(C)[C@H](Cc1c[nH]c2ccccc12)C(=O)[O-] [Compound 16, L-hypaphorine, reference compound]		did not show α7 nAChR agonistic activity	failed to activate α7 nAChR	no agonistic activity	increase in the phosphorylation	14	
COC(=O)[C@@H](Cc1c[nH]c2cc(I)ccc12)[N+](C)(C)C [Compound 1, (D)-6-iodohypaphorine methyl ester]					58	31	0.61

Source: paper PMC10305119, “Analogs of 6-Bromohypaphorine with Increased Agonist Potency for α7 Nicotinic Receptor as Anti-Inflammatory Analgesic Agents” (Marine Drugs, 2023)
